Source: patent US8278452B2, “Heterocyclic compounds and compositions as c-kit and PDGFR kinase inhibitors” (IRM LLC, priority 2008, dated 2012)

Legend:
[1] = tested on: Mo7e cells which endogenously express c-kit; assay: Mo7e assay: inhibition of SCF dependent proliferation (MTT); assay type: cell-based
In short: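 Mo7e cells stimulated with human recombinant SCF and exposed to two-fold serial compound dilutions from a top concentration of 10 μM. After 48 h at 37 °C, viability measured by MTT colorimetric assay; IC50 derived.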

[2] = tested on: Human TG/HA-VSMC cells; assay: Human TG/HA-VSMC proliferation assay (PDGF-BB, CellTiter-Glo); assay type: cell-based; conditions: Biological data table, PDGF-BB stimulated
Method: Human TG/HA-VSMC Proliferation Assay
Human TG/HA-VSMC cells (ATCC) were resuspended in DMEM supplemented with 1% FBS and 30 ng/mL recombinant human PDGF-BB at 60,000 cells/mL. The cells were aliquoted into 384 well plates at 50 μL/well and incubated for 4 hours at 37° C. in a humidified incubator in the presence of 5% carbon dioxide. 0.5 μL of test compound diluted in DMSO was added to each well. The plates were returned to the incubator for a further 68 hours. 25 μL of CellTiter-Glo (Promega) was added to each well and the plates were incubated on the bench for 15 minutes. Luminescence was then read using a CLIPR CCD camera (Molecular Devices).

[3] = Mo7e, Biological data table (selectivity c-kit over PDGFR)
[4] = Table 1, SCF stimulated Mo7e cells, 48 hours, MTT

SMILES | IC50 [1, 3] [nM] | IC50 [1, 4] [nM] | IC50 [2] [nM]
Cc1cc2c(cn1)cc(-c1cc(Nc3noc(C4CC4)n3)ccc1C)c(=O)n2C [Compound A3, 3-(5-(5-cyclopropyl-1,2,4-oxadiazol-3-ylamino)-2-methylphenyl)-1,7-dimethyl-1,6-naphthyridin-2(1H)-one] | 16 | 16 | 506
COc1ccc(-c2nc(Nc3ccc(C)c(-c4cc5cnc(C)cc5n(C)c4=O)c3)no2)cc1 [Compound A14, 3-(5-{[5-(4-methoxyphenyl)-1,2,4-oxadiazol-3-yl]amino}-2-methylphenyl)-1,7-dimethyl-1,2-dihydro-1,6-naphthyridin-2-one] | 14 | 14 | 1820
Cc1ccc(-c2nnc(Nc3ccc(C)c(-c4cc5cnc(C)cc5n(C)c4=O)c3)o2)cc1 [Compound B1, 1,7-dimethyl-3-(2-methyl-5-{[5-(4-methylphenyl)-1,3,4-oxadiazol-2-yl]amino}phenyl)-1,2-dihydro-1,6-naphthyridin-2-one] | 76 | 76 | 2260
Cc1cc2c(cn1)cc(-c1cc(Nc3nnc(-c4ccccc4)[nH]3)ccc1C)c(=O)n2C [Compound C6, 1,7-dimethyl-3-(2-methyl-5-(5-phenyl-4H-1,2,4-triazol-3-ylamino)phenyl)-1,6-naphthyridin-2(1H)-one] | 335 | 335 | 3390
Cc1cc2c(cn1)cc(-c1cc(Nc3cc(-c4nccs4)on3)ccc1C)c(=O)n2C [Compound D9, 1,7-dimethyl-3-(2-methyl-5-(5-(thiazol-2-yl)isoxazol-3-ylamino)phenyl)-1,6-naphthyridin-2(1H)-one] | 141 | 141 | 1070
Cc1cc2c(cn1)cc(-c1cc(Nc3nc(-c4ccccn4)no3)ccc1C)c(=O)n2C [Compound E2, 1,7-dimethyl-3-(2-methyl-5-(3-(pyridin-2-yl)-1,2,4-oxadiazol-5-ylamino)phenyl)-1,6-naphthyridin-2(1H)-one] | 256 | 256 | 2360
Cc1cc2c(cn1)cc(-c1cc(Nc3nc(C(C)C)no3)ccc1C)c(=O)n2C [Compound E3, 3-(5-(3-isopropyl-1,2,4-oxadiazol-5-ylamino)-2-methylphenyl)-1,7-dimethyl-1,6-naphthyridin-2(1H)-one] |  | 181 | 
Cc1cc2c(cn1)cc(-c1cc(Nc3cc(-c4nccs4)no3)ccc1C)c(=O)n2C [Compound F1, 1,7-dimethyl-3-(2-methyl-5-(3-(thiazol-2-yl)isoxazol-5-ylamino)phenyl)-1,6-naphthyridin-2(1H)-one] | 111 | 111 | 2140
Cc1cc2c(cn1)cc(-c1cc(Nc3nsc(-c4ccccc4)n3)ccc1C)c(=O)n2C [Compound G1, 1,7-dimethyl-3-(2-methyl-5-(5-phenyl-1,2,4-thiadiazol-3-ylamino)phenyl)-1,6-naphthyridin-2(1H)-one] |  | 733 | 
Cc1cc2c(cn1)cc(-c1cc(Nc3nnc(-c4ccccc4)s3)ccc1C)c(=O)n2C [Compound H1, 1,7-dimethyl-3-(2-methyl-5-(5-phenyl-1,3,4-thiadiazol-2-ylamino)phenyl)-1,6-naphthyridin-2(1H)-one] |  | 552 | 
